Counter-ions that a name gives are not always drawn.
Key:
[1] = system: HCT 116 human colorectal carcinoma / A375 human malignant melanoma cell lines; assay: Cell proliferation assay (CellTiter-Glo), Example 3; type: cell-based; conditions: in either one of the cell lines (HCT 116, A375), 72 h
Description: Example 3 Cell Proliferation Assay
Compounds are tested in a cell proliferation assay using the following cell lines:
HCT 116 human colorectal carcinoma (ATCC)
(§1) A375 human malignant melanoma (ATCC)
(§2) Both cell lines are maintained in DMEM/F12 (1:1) media (Gibco) supplemented with 10% FCS at 37° C. in a 5% CO2 humidified incubator.
Cells are seeded in 96-well plates at 2,000 cells/well and after 24 hours they are exposed to different concentrations of compounds in 0.83% DMSO. Cells are grown for a further 72 h, and an equal volume of CellTiter-Glo reagent (Promega) is added to each well. This lyses the cells and generates a luminescent signal proportional to the amount of ATP released (and therefore proportional to the number of cells in the well) that can be detected using a multiwell luminometer.
EC50 values are calculated using the XLfit software package (version 2.0.5).

[2] = system: cellular p-ERK in HCT116 human colorectal carcinoma / A375 human malignant melanoma cell lines; assay: Phospho-ERK cell-based assay (ELISA), Example 4; conditions: in either one of the cell lines (HCT116, A375), 2 h or 24 h exposure
Description: Example 4 Phospho-ERK Cell-Based Assay
Compounds are tested in a cell-based phospho-ERK ELISA using the following cell lines:
HCT116 human colorectal carcinoma (ATCC)
as §1, §2
Cells are seeded in 96-well plates at 2,000 cells/well and after 24 h they are exposed to different concentrations of compounds in 0.83% DMSO. Cells are grown for a further 2 h or 24 h, fixed with formaldehyde (2% final) and permeabilised with methanol. Following blocking with TBST-3% BSA, fixed cells are incubated with primary antibody (anti-phospho ERK from rabbit) over-night at 4° C. Cells are incubated with Propidium Iodide (DNA fluorescent dye) and detection of cellular p-ERK is performed using an anti-rabbit secondary antibody conjugated to the fluorescent Alexa Fluor 488 dye (Molecular probes). The fluorescence is analysed using the Acumen Explorer (TTP Labtech), a laser-scanning microplate cytometer, and the Alexa Fluor 488 signal is normalised to the PI signal (proportional to cell number).
The EC50 is defined as the concentration at which a given compound achieves a signal half way between the baseline and the maximum response. EC50 values are calculated using the XLfit software package (version 2.0.5).

| SMILES | EC50 [1] | EC50 [2] |
| --- | --- | --- |
| O=C(NOC[C@@H]1CCCN1)c1oc2ccncc2c1Nc1ccc(I)cc1F [Example 141, 3-(2-Fluoro-4-iodo-phenylamino)-furo[3,2-c]pyridine-2-carboxylic acid ((S)-1-pyrrolidin-2-ylmethoxy)-amide] | < 10 µM | < 10 µM |
| O=C(NO)c1oc2ccncc2c1Nc1ccc(I)cc1F [Example 24, 3-(2-Fluoro-4-iodo-phenylamino)-furo[3,2-c]pyridine-2-carboxylic acid hydroxyamide] | < 10 µM | < 10 µM |
| CSc1ccc(Nc2c(C(=O)NOCCO)oc3ccncc23)c(F)c1 [Example 35, 3-(2-Fluoro-4-methylsulfanyl-phenylamino)-furo[3,2-c]pyridine-2-carboxylic acid (2-hydroxy-ethoxy)-amide] | < 10 µM | < 10 µM |
| NC(=O)c1oc2ccncc2c1Nc1ccc(I)cc1F [Example 21, 3-(2-Fluoro-4-iodo-phenylamino)-furo[3,2-c]pyridine-2-carboxylic acid amide] | < 10 µM | < 10 µM |
| O=C(NOC1CCNCC1)c1oc2ccncc2c1Nc1ccc(I)cc1F [Example 20, 3-(2-Fluoro-4-iodo-phenylamino)-furo[3,2-c]pyridine-2-carboxylic acid (piperidin-4-yloxy)-amide mono formate salt] | < 10 µM | < 10 µM |
| O=C(NOCC1CC1)c1oc2ccncc2c1Nc1ccc(I)cc1F [Example 8, 3-(2-Fluoro-4-iodo-phenylamino)-furo[3,2-c]pyridine-2-carboxylic acid cyclopropylmethoxy-amide] | < 10 µM | < 10 µM |
| O=C(NOC[C@H](O)CO)c1oc2c(Cl)cncc2c1Nc1ccc(I)cc1F [Example 138, 7-Chloro-3-(2-fluoro-4-iodo-phenylamino)-furo[3,2-c]pyridine-2-carboxylic acid ((R)-2,3-dihydroxy-propoxy)-amide] | < 10 µM | < 10 µM |

Results, then the compound that gave them:

| EC50 [1] | EC50 [2] | SMILES |
| --- | --- | --- |
| < 10 µM | < 10 µM | NCCONC(=O)c1oc2ccncc2c1Nc1ccc(I)cc1F [Example 31, 3-(2-Fluoro-4-iodo-phenylamino)-furo[3,2-c]pyridine-2-carboxlic acid (2-amino-ethoxy)-amide] |
| < 10 µM | < 10 µM | O=C(NOC[C@H](O)CO)c1oc2ccncc2c1Nc1ccc(Br)cc1F [Example 6, 3-(2-Fluoro-4-bromo-phenylamino)-furo[3,2-c]pyridine-2-carboxylic acid ((R)-2,3-dihydroxy-propoxy)-amide] |
| < 10 µM | < 10 µM | O=C(NOC[C@H](O)CO)c1oc2ccncc2c1Nc1cc(F)c(I)cc1F [Example 15, 3-(2,5-Difluoro-4-iodo-phenylamino)-furo[3,2-c]pyridine-2-carboxylic acid ((R)-2,3-dihydroxy-propoxy)-amide] |
| < 10 µM | < 10 µM | O=C(NOCCO)c1oc2ccncc2c1Nc1ccc(I)cc1F [Example 10, 3-(2-Fluoro-4-iodo-phenylamino)-furo[3,2-c]pyridine-2-carboxylic acid (2-hydroxy-ethoxy)-amide] |
| < 10 µM | < 10 µM | O=C(NOC1CCCNC1)c1oc2ccncc2c1Nc1ccc(I)cc1F (centres unmarked) [Example 140, 3-(2-Fluoro-4-iodo-phenylamino)-furo[3,2-c]pyridine-2-carboxylic acid (piperdin-3-yloxy)-amide] |
| < 10 µM | < 10 µM | O=C(NOC[C@H](O)CO)c1oc2ccncc2c1Nc1ccc(I)cc1F [Example 5, 3-(2-Fluoro-4-iodo-phenylamino)-furo[3,2-c]pyridine-2-carboxylic acid ((R)-2,3-dihydroxy-propoxy)-amide] |
| < 10 µM | < 10 µM | C=COCCONC(=O)c1oc2ccncc2c1Nc1ccc(I)cc1F [Example 11, 3-(2-Fluoro-4-iodo-phenylamino)-furo[3,2-c]pyridine-2-carboxylic acid (2-vinyloxy-ethoxy)-amide] |
| < 10 µM | < 10 µM | O=C(NOC[C@H](O)CO)c1oc2ccncc2c1Nc1ccc(I)cc1Cl [Example 13, 3-(2-Chloro-4-iodo-phenylamino)-furo[3,2-c]pyridine-2-carboxylic acid ((R)-2,3-dihydroxy-propoxy)-amide] |
| < 10 µM | < 10 µM | CN(c1ccc(I)cc1F)c1c(C(=O)NOCCO)oc2ccncc12 [Example 22, 3-[(2-Fluoro-4-iodo-phenyl)-methyl-amino]-furo[3,2-c]pyridine-2-carboxylic acid (2-hydroxy-ethoxy)-amide] |
